In PubChem BioAssay AID212 (DTP/NCI, 2004) one finds T/C data, which are given here for 12 molecules.

“And” between values parts separate entries of the source, which are not always exact repeats. Identical values can stand only once. Inconclusive results are not listed.

The test system of this experiment is BDF1 mice, colon carcinoma 38 sc, T/C %. In words: NCI In Vivo Anticancer Drug Screen. Data for tumor model Colon Carcinoma 38 (subcutaneous) in B6D2F1 (BDF1) mice. An outline of the steps: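 Mice with transplanted tumors are treated with compound or vehicle. Survival or tumor size is then measured in both groups. The ratio of treated to control gives the reported figure.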

[1] abbreviates: endpoint: median tumor weight (est.), dose: 25.0 mg/kg/injection, schedule: Q07DX002 (ip), vehicle: saline with Tween-80, higher = larger tumour.
The mark [2] stands for this setting: endpoint: median tumor weight (est.), dose: 50.0 mg/kg/injection, schedule: Q07DX002 (ip), vehicle: saline with Tween-80, higher = larger tumour.
Setting [3] is: endpoint: median tumor weight (est.), dose: 100.0 mg/kg/injection, schedule: Q07DX002 (ip), vehicle: saline with Tween-80, higher = larger tumour.
Where [4] appears, read: endpoint: median tumor weight (est.), dose: 200.0 mg/kg/injection, schedule: Q07DX002 (ip), vehicle: saline with Tween-80, higher = larger tumour.
Where [5] appears, read: endpoint: median tumor weight (est.), dose: 400.0 mg/kg/injection, schedule: Q07DX002 (ip), vehicle: saline with Tween-80, higher = larger tumour.

Turning to `Nc1ncn(C2CC(O)C(CO)O2)c(=O)n1` (configuration not stated), the T/C is 102 % of control (endpoint: median tumor weight (est.), dose: 0.5 mg/kg/injection, schedule: Q07DX002 (ip), vehicle: Klucel (hydroxypropylcellulose) (HPC), higher = larger tumour); 90 % of control (endpoint: median tumor weight (est.), dose: 0.5 mg/kg/injection, schedule: Q07DX002 (ip), vehicle: saline, higher = larger tumour); 113 % of control (endpoint: median tumor weight (est.), dose: 1.0 mg/kg/injection, schedule: Q07DX002 (ip), vehicle: Klucel (hydroxypropylcellulose) (HPC), higher = larger tumour); 99 % of control (endpoint: median tumor weight (est.), dose: 1.0 mg/kg/injection, schedule: Q07DX002 (ip), vehicle: saline, higher = larger tumour); 86 % of control (endpoint: median tumor weight (est.), dose: 2.0 mg/kg/injection, schedule: Q07DX002 (ip), vehicle: Klucel (hydroxypropylcellulose) (HPC), higher = larger tumour); 75 % of control (endpoint: median tumor weight (est.), dose: 2.0 mg/kg/injection, schedule: Q07DX002 (ip), vehicle: saline, higher = larger tumour). Moreover, the T/C (endpoint: median tumor weight (est.), dose: 3.0 mg/kg/injection, schedule: Q07DX002 (ip), vehicle: saline, higher = larger tumour) is 14 % of control and 34 % of control; the T/C (endpoint: median tumor weight (est.), dose: 4.0 mg/kg/injection, schedule: Q07DX002 (ip), vehicle: Klucel (hydroxypropylcellulose) (HPC), higher = larger tumour) is 106 % of control; the T/C (endpoint: median tumor weight (est.), dose: 4.0 mg/kg/injection, schedule: Q07DX002 (ip), vehicle: saline, higher = larger tumour) is 43 % of control; the T/C (endpoint: median tumor weight (est.), dose: 6.0 mg/kg/injection, schedule: Q07DX002 (ip), vehicle: saline, higher = larger tumour) is 29 % of control and 46 % of control; the T/C (endpoint: median tumor weight (est.), dose: 8.0 mg/kg/injection, schedule: Q07DX002 (ip), vehicle: Klucel (hydroxypropylcellulose) (HPC), higher = larger tumour) was 60 % of control; the T/C (endpoint: median tumor weight (est.), dose: 8.0 mg/kg/injection, schedule: Q07DX002 (ip), vehicle: saline, higher = larger tumour) was 28 % of control. In addition, the T/C is 23 % of control (endpoint: median tumor weight (est.), dose: 12.0 mg/kg/injection, schedule: Q07DX002 (ip), vehicle: saline, higher = larger tumour); 41 % of control (endpoint: median tumor weight (est.), dose: 16.0 mg/kg/injection, schedule: Q07DX002 (ip), vehicle: Klucel (hydroxypropylcellulose) (HPC), higher = larger tumour); 22 % of control (endpoint: median tumor weight (est.), dose: 16.0 mg/kg/injection, schedule: Q07DX002 (ip), vehicle: saline, higher = larger tumour); 43 % of control (endpoint: median tumor weight (est.), dose: 32.0 mg/kg/injection, schedule: Q07DX002 (ip), vehicle: Klucel (hydroxypropylcellulose) (HPC), higher = larger tumour); 4 % of control (endpoint: median tumor weight (est.), dose: 32.0 mg/kg/injection, schedule: Q07DX002 (ip), vehicle: saline, higher = larger tumour).
As for `COc1ccc(OC)c(/C=C/c2ccnc3ccccc23)c1`, the T/C by setting is: (endpoint: median tumor weight (est.), dose: 12.5 mg/kg/injection, schedule: Q07DX002 (ip), vehicle: saline with Tween-80, higher = larger tumour) 152 % of control; under setting [1], 101 % of control; under setting [2], 86 % of control; under setting [3], 116 % of control; under setting [4], 111 % of control; under setting [5], 75 % of control.
With `COc1cc(C)c(C2NC(=O)c3ccccc3N2)cc1C` (configuration not stated), the T/C is 121 % of control (endpoint: median tumor weight (est.), dose: 50.0 mg/kg/injection, schedule: Q07DX002 (ip), vehicle: Klucel (hydroxypropylcellulose) (HPC), higher = larger tumour); 78 % of control (endpoint: median tumor weight (est.), dose: 100.0 mg/kg/injection, schedule: Q07DX002 (ip), vehicle: Klucel (hydroxypropylcellulose) (HPC), higher = larger tumour); 117 % of control (endpoint: median tumor weight (est.), dose: 400.0 mg/kg/injection, schedule: Q07DX002 (ip), vehicle: Klucel (hydroxypropylcellulose) (HPC), higher = larger tumour); 108 % of control (endpoint: median tumor weight (est.), dose: 800.0 mg/kg/injection, schedule: Q07DX002 (ip), vehicle: Klucel (hydroxypropylcellulose) (HPC), higher = larger tumour).
In the case of `CN(C)C1C(=O)C(C(=O)NP(=O)(NCCCO)N(CCCl)CCCl)=C(O)C2(O)C(=O)C3=C(O)c4c(O)cccc4C(C)(O)C3CC12` (configuration not stated), the T/C reads like this: under setting [2], 82 % of control; under setting [3], 95 % of control; under setting [4], 56 % of control; under setting [5], 17 % of control.
On to `C=C(C)[C@H]1Cc2c(ccc3c2O[C@@H]2COc4cc(OC)c(OC)cc4[C@@H]2C3=O)O1`, for which the T/C runs as follows: (endpoint: median tumor weight (est.), dose: 2.0 mg/kg/injection, schedule: Q07DX003 (ip), vehicle: saline with Tween-80, higher = larger tumour) 230 % of control; (endpoint: median tumor weight (est.), dose: 8.0 mg/kg/injection, schedule: Q07DX003 (ip), vehicle: saline with Tween-80, higher = larger tumour) 98 % of control.
As to `N=C1C=C[C@]2(O)C[C@H](Cl)CN12`, the T/C (endpoint: median tumor weight (est.), dose: 1.56 mg/kg/injection, schedule: Q07DX002 (ip), vehicle: saline, higher = larger tumour) was 73 % of control; the T/C (endpoint: median tumor weight (est.), dose: 3.12 mg/kg/injection, schedule: Q07DX002 (ip), vehicle: saline, higher = larger tumour) was 79 % of control; the T/C (endpoint: median tumor weight (est.), dose: 6.25 mg/kg/injection, schedule: Q07DX002 (ip), vehicle: saline, higher = larger tumour) was 71 % of control; the T/C (endpoint: median tumor weight (est.), dose: 12.5 mg/kg/injection, schedule: Q07DX002 (ip), vehicle: saline, higher = larger tumour) is 88 % of control.
Take `CCN(CC)CCNc1ccc(C)c2sc3ccc(O)cc3c(=O)c12`: the T/C is, setting by setting: under setting [1], 92 % of control; under setting [2], 74 % of control; under setting [3], 68 % of control; under setting [4], 33 % of control.
As to `COC(C(=O)C(O)C(C)O)C1CC2C=C3C=C(OC4CC(OC5CC(O)C(OC)C(C)O5)C(OC(C)=O)C(C)O4)C(C)C(=O)C3=C(O)C2=C(O)C1OC1CC(OC2CC(OC3CC(C)(O)C(O)C(C)O3)C(O)C(C)O2)C(O)C(C)O1` (configuration not stated), the T/C was 121 % of control (endpoint: median tumor weight (est.), dose: 1.0 mg/kg/injection, schedule: Q07DX002 (ip), vehicle: saline with Tween-80, higher = larger tumour); 150 % of control (endpoint: median tumor weight (est.), dose: 2.0 mg/kg/injection, schedule: Q07DX002 (ip), vehicle: saline with Tween-80, higher = larger tumour); 112 % of control (endpoint: median tumor weight (est.), dose: 4.0 mg/kg/injection, schedule: Q07DX002 (ip), vehicle: saline with Tween-80, higher = larger tumour); 114 % of control (endpoint: median tumor weight (est.), dose: 8.0 mg/kg/injection, schedule: Q07DX002 (ip), vehicle: saline with Tween-80, higher = larger tumour); 111 % of control (endpoint: median tumor weight (est.), dose: 16.0 mg/kg/injection, schedule: Q07DX002 (ip), vehicle: saline with Tween-80, higher = larger tumour).
As to `COc1cc(Cc2nccc3cc(OC)c(OC)cc23)c(C(C)=O)c(OC)c1`, the T/C is 104 % of control (endpoint: median tumor weight (est.), dose: 10.0 mg/kg/injection, schedule: Q07DX002 (ip), vehicle: suspension in saline, higher = larger tumour); 110 % of control (endpoint: median tumor weight (est.), dose: 20.0 mg/kg/injection, schedule: Q07DX002 (ip), vehicle: saline, higher = larger tumour); 103 % of control (endpoint: median tumor weight (est.), dose: 20.0 mg/kg/injection, schedule: Q07DX002 (ip), vehicle: suspension in saline, higher = larger tumour); 107 % of control (endpoint: median tumor weight (est.), dose: 40.0 mg/kg/injection, schedule: Q07DX002 (ip), vehicle: saline, higher = larger tumour); 59 % of control (endpoint: median tumor weight (est.), dose: 40.0 mg/kg/injection, schedule: Q07DX002 (ip), vehicle: suspension in saline, higher = larger tumour); 82 % of control (endpoint: median tumor weight (est.), dose: 80.0 mg/kg/injection, schedule: Q07DX002 (ip), vehicle: saline, higher = larger tumour). Moreover, the T/C is, setting by setting: (endpoint: median tumor weight (est.), dose: 80.0 mg/kg/injection, schedule: Q07DX002 (ip), vehicle: suspension in saline, higher = larger tumour) 81 % of control; (endpoint: median tumor weight (est.), dose: 160.0 mg/kg/injection, schedule: Q07DX002 (ip), vehicle: saline, higher = larger tumour) 96 % of control; (endpoint: median tumor weight (est.), dose: 320.0 mg/kg/injection, schedule: Q07DX002 (ip), vehicle: saline, higher = larger tumour) 74 % of control.
Regarding `O=c1[nH]cc(F)c(=O)[nH]1`, the T/C is, setting by setting: (endpoint: median survival time, dose: 16.2 mg/kg/injection, schedule: Q04DX002 (ip), vehicle: saline, higher = longer survival) 119 % of control; (endpoint: median survival time, dose: 21.1 mg/kg/injection, schedule: Q01DX010 (ip), vehicle: saline, higher = longer survival) 199 % of control; (endpoint: median survival time, dose: 34.0 mg/kg/injection, schedule: Q01DX010 (ip), vehicle: saline, higher = longer survival) 199 % of control; (endpoint: median survival time, dose: 36.0 mg/kg/injection, schedule: Q04DX003 (ip), vehicle: saline, higher = longer survival) 119 % of control; (endpoint: median survival time, dose: 42.0 mg/kg/injection, schedule: Q04DX004 (ip), vehicle: saline, higher = longer survival) 122 % of control; (endpoint: median survival time, dose: 60.0 mg/kg/injection, schedule: Q04DX004 (ip), vehicle: alkali diluted with saline, higher = longer survival) 197 % of control and 204 % of control. Moreover, the T/C (endpoint: median survival time, dose: 73.0 mg/kg/injection, schedule: Q07DX003 (iv), vehicle: saline, higher = longer survival) was 124 % of control; the T/C (endpoint: median survival time, dose: 75.0 mg/kg/injection, schedule: Q04DX002 (ip), vehicle: saline, higher = longer survival) was 233 % of control; the T/C (endpoint: median survival time, dose: 100.0 mg/kg/injection, schedule: Q04DX004 (ip), vehicle: alkali diluted with saline, higher = longer survival) is 72 % of control; the T/C (endpoint: median survival time, dose: 167.0 mg/kg/injection, schedule: Q04DX004 (ip), vehicle: alkali diluted with saline, higher = longer survival) was 57 % of control; the T/C (endpoint: median tumor weight (est.), dose: 21.6 mg/kg/injection, schedule: Q04DX004 (ip), vehicle: saline, higher = larger tumour) was 65 % of control; the T/C (endpoint: median tumor weight (est.), dose: 36.0 mg/kg/injection, schedule: Q04DX004 (ip), vehicle: saline, higher = larger tumour) was 38 % of control.
On to `Nc1nc2c(ncn2C2OC(CO)C(O)C2N)c(=O)[nH]1` (configuration not stated), for which the T/C under setting [2] was 73 % of control and the T/C under setting [3] was 74 % of control.
In the case of `CCCCCCCCCCCCCCCC(=O)OCC1OC(n2ccc(N)nc2=O)C(O)C1O` (configuration not stated), the T/C under setting [1] was 72 % of control, the T/C under setting [2] is 36 % of control and the T/C under setting [3] was 7 % of control.
